Results from publication PMC7066280 (Investigational New Drugs, 2019).
Like-named read-outs stand apart in the source and are kept apart here.

Test: Ivosidenib plasma PK after a single oral dose (day −3, dose escalation), LC-MS/MS, non-compartmental
Format: in vivo
Conditions: human; for AUC(0-t): read-out: AUC0-72h
Method: In the dose escalation portion, patients with 1) glioma and 2) non-glioma solid tumors were enrolled into sequential cohorts using a standard 3 + 3 design. […] At least 3 patients in each cohort also received a single dose 3 days prior to the start of multiple dosing (i.e., day −3).
These samples were optional for any further patients enrolled in these cohorts. Further blood samples were collected from all patients up to 10 h postdose on cycle 1, day 15 and cycle 2, day 1. A subset of samples was also used for evaluation of plasma 4β-hydroxycholesterol (4β-OHC) and 4β-OHC:cholesterol ratios. Blood samples for assessment of 2-HG only were also collected at screening.
Plasma ivosidenib was measured using two validated liquid chromatography-tandem mass spectrometry (LC-MS/MS) methods. The lower limit of quantification (LLOQ) was 1.00 ng/mL (low-range assay) or 50.0 ng/mL (high-range assay). […] Plasma 2-HG concentrations were measured using a qualified LC-MS/MS method with an LLOQ of 30.0 ng/mL. Concentrations of 2-HG in tumor biopsy samples were quantified using qualified LC-MS/MS methods with an LLOQ of 7.5 μg/g for brain tumor homogenate, 100 ng/g for liver tumor homogenate (low-range assay), and 30 μg/g for liver tumor homogenate (high-range assay). Plasma 4β-OHC and cholesterol were measured using a validated LC-MS/MS method. The LLOQ was 5 ng/mL for 4β-OHC and 25 μg/mL for cholesterol in human plasma.
PK parameters included area under the plasma concentration-time curve (AUC), maximum plasma concentration (Cmax), time to maximum plasma concentration (Tmax), terminal elimination half-life (t1/2), and apparent oral clearance at steady state (CLss/F). Accumulation ratio (Racc), based on Cmax and AUC, was also assessed during the dose escalation portion. PD (2-HG) parameters included baseline-effect value, area under the effect concentration-time curve (AUEC0-10h for the dose escalation portion, or AUEC0-8h for the dose escalation and expansion portions), percent change from baseline in AUEC (%BAUEC0-10h for the escalation portion, or %BAUEC0-8h for the dose escalation and expansion portions), average plasma concentration (Cavg), and percent inhibition for Cavg (%BCavg). For the dose escalation portion, the time-matched ratios of 4β-OHC to cholesterol were calculated.

[1] = po, 100 mg, glioma, single oral 100 mg, day −3, geometric mean (geometric CV%)
[2] = po, 100 mg, non-glioma solid tumors, single oral 100 mg, day −3, geometric mean (geometric CV%)
[3] = po, 300 mg, glioma, single oral 300 mg, day −3, geometric mean (geometric CV%)
[4] = po, 300 mg, non-glioma solid tumors, single oral 300 mg, day −3, geometric mean (geometric CV%)
[5] = po, 400 mg, non-glioma solid tumors, single oral 400 mg, day −3, geometric mean (geometric CV%)
[6] = po, 500 mg, glioma, single oral 500 mg, day −3, geometric mean (geometric CV%)
[7] = po, 500 mg, non-glioma solid tumors, single oral 500 mg, day −3, geometric mean (geometric CV%)
[8] = po, 600 mg, glioma, single oral 600 mg, day −3, geometric mean (geometric CV%)
[9] = po, 800 mg, non-glioma solid tumors, single oral 800 mg, day −3, geometric mean (geometric CV%)
[10] = po, 900 mg, glioma, single oral 900 mg, day −3, geometric mean (geometric CV%)
[11] = po, 1200 mg, non-glioma solid tumors, single oral 1200 mg, day −3, geometric mean (geometric CV%)

Work on N#Cc1ccnc(N2C(=O)CC[C@H]2C(=O)N(c2cncc(F)c2)[C@H](C(=O)NC2CC(F)(F)C2)c2ccccc2Cl)c1 [ivosidenib] yielded a half-life (oral, 500 mg, single dose of 500 mg, patients with glioma, read-out: mean t1/2 (converted)) of 56 h, a half-life (oral, after single dose, range of means across doses and tumor types, read-out: terminal half-life (mean)) of 40 to 102 h and a Tmax (oral, single dose day −3, range across all tumor types, read-out: median Tmax) of 2 to 6 h. For the same compound, the half-life (oral, single dose, patients with glioma, range across doses, read-out: mean t1/2 (converted)) was 40 to 56 h, the half-life (oral, single dose, patients with non-glioma solid tumors, range across doses, read-out: mean t1/2 (converted)) was 62 to 102 h and the Cmax [1] was 1270 ng/mL. The AUC(0-t) [1] was 32800 ng·h/mL, the half-life (po, 100 mg, glioma, single oral 100 mg, day −3, geometric mean (geometric CV%), read-out: t1/2 (converted)) was 55.5 h and the Tmax (po, 100 mg, glioma, single oral 100 mg, day −3, median (minimum; maximum), read-out: Tmax) was 2.03 h. It also gave a Cmax [2] of 1400 ng/mL, an AUC(0-t) [2] of 34800 ng·h/mL and a half-life (po, 100 mg, non-glioma solid tumors, single oral 100 mg, day −3, geometric mean (geometric CV%), read-out: t1/2 (converted)) of 102 h. The Tmax (po, 100 mg, non-glioma solid tumors, single oral 100 mg, day −3, median (minimum; maximum), read-out: Tmax) was 3 h, the Cmax [3] was 2300 ng/mL and the AUC(0-t) [3] was 62500 ng·h/mL. It also gave a half-life (po, 300 mg, glioma, single oral 300 mg, day −3, geometric mean (geometric CV%), read-out: t1/2 (converted)) of 53.6 h, a Tmax (po, 300 mg, glioma, single oral 300 mg, day −3, median (minimum; maximum), read-out: Tmax) of 4 h and a Cmax [4] of 2350 ng/mL. The AUC(0-t) [4] was 71600 ng·h/mL, the half-life (po, 300 mg, non-glioma solid tumors, single oral 300 mg, day −3, geometric mean (geometric CV%), read-out: t1/2 (converted)) was 77.9 h and the Tmax (po, 300 mg, non-glioma solid tumors, single oral 300 mg, day −3, median (minimum; maximum), read-out: Tmax) was 4.17 h. The Cmax [5] was 4230 ng/mL, the AUC(0-t) [5] was 141000 ng·h/mL and the half-life (po, 400 mg, non-glioma solid tumors, single oral 400 mg, day −3, geometric mean (geometric CV%), read-out: t1/2 (converted)) was 77.3 h. For the same compound, the Tmax (po, 400 mg, non-glioma solid tumors, single oral 400 mg, day −3, median (minimum; maximum), read-out: Tmax) was 3 h, the Cmax [6] was 2370 ng/mL and the AUC(0-t) [6] was 81900 ng·h/mL. The half-life (po, 500 mg, glioma, single oral 500 mg, day −3, geometric mean (geometric CV%), read-out: t1/2 (converted)) was 56.4 h, the Tmax (po, 500 mg, glioma, single oral 500 mg, day −3, median (minimum; maximum), read-out: Tmax) was 3.54 h and the Cmax [7] was 3660 ng/mL. It also gave an AUC(0-t) [7] of 112000 ng·h/mL, a half-life (po, 500 mg, non-glioma solid tumors, single oral 500 mg, day −3, geometric mean (geometric CV%), read-out: t1/2 (converted)) of 64.3 h and a Tmax (po, 500 mg, non-glioma solid tumors, single oral 500 mg, day −3, median (minimum; maximum), read-out: Tmax) of 2.92 h. The Cmax [8] was 3380 ng/mL, the AUC(0-t) [8] was 77700 ng·h/mL and the half-life (po, 600 mg, glioma, single oral 600 mg, day −3, geometric mean (geometric CV%), read-out: t1/2 (converted)) was 39.5 h. For the same compound, the Tmax (po, 600 mg, glioma, single oral 600 mg, day −3, median (minimum; maximum), read-out: Tmax) was 3 h, the Cmax [9] was 6190 ng/mL and the AUC(0-t) [9] was 179000 ng·h/mL. It also gave a half-life (po, 800 mg, non-glioma solid tumors, single oral 800 mg, day −3, geometric mean (geometric CV%), read-out: t1/2 (converted)) of 62.8 h, a Tmax (po, 800 mg, non-glioma solid tumors, single oral 800 mg, day −3, median (minimum; maximum), read-out: Tmax) of 3 h and a Cmax [10] of 3440 ng/mL. It also gave an AUC(0-t) [10] of 98600 ng·h/mL, a half-life (po, 900 mg, glioma, single oral 900 mg, day −3, geometric mean (geometric CV%), read-out: t1/2 (converted)) of 54.3 h and a Tmax (po, 900 mg, glioma, single oral 900 mg, day −3, median (minimum; maximum), read-out: Tmax) of 2.55 h. For the same compound, the Cmax [11] was 5990 ng/mL, the AUC(0-t) [11] was 212000 ng·h/mL and the half-life (po, 1200 mg, non-glioma solid tumors, single oral 1200 mg, day −3, geometric mean (geometric CV%), read-out: t1/2 (converted)) was 61.6 h. It also gave a Tmax (po, 1200 mg, non-glioma solid tumors, single oral 1200 mg, day −3, median (minimum; maximum), read-out: Tmax) of 6 h.
